Experimental data taken from patent US20100189683A1, “Pulsatile Dosing of Gossypol for Treatment of Disease” (Ascenta Therapeutics, Inc., priority 2008, published 2010).

Tested on: patients with advanced cancer
Experiment: Phase I clinical trial, daily versus pulsatile dosing of (−)-gossypol: adverse events graded by NCI-CTCAE v3 (Daily N = 38, BID × 3 d N = 21, Weekly N = 12)
Assay type: in vivo, human
Procedure: A phase I clinical trial was carried out to compare the maximum tolerated dose and safety of daily (i.e., continuous) versus pulsatile (i.e., intermittent) dosing of (−)-gossypol in patients with advanced cancer. A secondary objective of this study was to identify any anti-tumor activity of (−)-gossypol. Patients were treated with increasing doses of (−)-gossypol according to the following dosing schedules: “Daily” dosing: 5 to 60 mg/day of (−)-gossypol on 21 days per 28 day cycle; “BID×3d” dosing: 30 to 80 mg BID of (−)-gossypol on 3 consecutive days (e.g., Monday-Tuesday-Wednesday) repeated every other week per 28 day cycle; and “Weekly” dosing: 80 to 200 mg of (−)-gossypol once weekly per 28 day cycle. Adverse events (AEs) were graded by NCI-CTCAE v3.

SMILES: Cc1cc2c(C(C)C)c(O)c(O)c(C=O)c2c(O)c1-c1c(C)cc2c(C(C)C)c(O)c(O)c(C=O)c2c1O [(−)-gossypol]
- ALT increase (Daily, Grade ¾): 5 (13) N (%)
- AST increase (Daily, Grade ¾): 6 (13) N (%)
- Abdominal discomfort (Daily, Grade ¾): 2 (5) N (%)
- Abdominal distention (Daily, Grade ¾): 0 N (%)
- Abdominal pain (Daily, Grade ¾): 1 (3) N (%)
- Albumin decreased (Daily, Grade ¾): 0 N (%)
- Alkaline phosphatase increase (Daily, Grade ¾): 0 N (%)
- Anorexia or decreased appetite (Daily, Grade ¾): 1 (3) N (%)
- Any AE (Daily, Grade ¾): 37 (98) N (%)
- Back pain (Daily, Grade ¾): 0 N (%)
- Constipation (Daily, Grade ¾): 0 N (%)
- Cough (Daily, Grade ¾): 0 N (%)
- Creatinine increased (Daily, Grade ¾): 0 N (%)
- Creatinine phosphokinase increase (Daily, Grade ¾): 0 N (%)
- Dehydration (Daily, Grade ¾): 2 (5) N (%)
- Diarrhea (Daily, Grade ¾): 5 (13) N (%)
- Dizziness (Daily, Grade ¾): 0 N (%)
- Dry mouth (Daily, Grade ¾): 0 N (%)
- Dysgeusia (Daily, Grade ¾): 0 N (%)
- Dyspnea (Daily, Grade ¾): 3 (8) N (%)
- Fatigue/Asthenia (Daily, Grade ¾): 4 (11) N (%)
- Flatulence (Daily, Grade ¾): 0 N (%)
- Headache (Daily, Grade ¾): 0 N (%)
- Hepatic encephalopathy (Daily, Grade ¾): 0 N (%)
- Hyperbilirubinaemia (Daily, Grade ¾): 1 (3) N (%)
- Hyperkalemia (Daily, Grade ¾): 0 N (%)
- Hypocalcemia (Daily, Grade ¾): 2 (5) N (%)
- Hypokalemia (Daily, Grade ¾): 3 (8) N (%)
- Hyponatremia (Daily, Grade ¾): 1 (3) N (%)
- Infection (Daily, Grade ¾): 1 (3) N (%)
- Insomnia (Daily, Grade ¾): 0 N (%)
- Mental status changes (Daily, Grade ¾): 1 (3) N (%)
- Nausea (Daily, Grade ¾): 5 (13) N (%)
- Pain (Daily, Grade ¾): 0 N (%)
- Pancreatitis (Daily, Grade ¾): 0 N (%)
- Peripheral edema (Daily, Grade ¾): 0 N (%)
- Pleural Effusion (Daily, Grade ¾): 2 (5) N (%)
- Pneumatosis intestinalis (Daily, Grade ¾): 0 N (%)
- Pneumonia (Daily, Grade ¾): 1 (3) N (%)
- Proteinurea (Daily, Grade ¾): 0 N (%)
- Pyrexia (Daily, Grade ¾): 1 (3) N (%)
- Renal Failure (Daily, Grade ¾): 0 N (%)
- Sinusitis (Daily, Grade ¾): 0 N (%)
- Small intestinal obstruction (ileus) (Daily, Grade ¾): 4 (11) N (%)
- Troponin I or T increased (Daily, Grade ¾): 1 (3) N (%)
- Urinary Tract Infection (Daily, Grade ¾): 0 N (%)
- Vomiting (Daily, Grade ¾): 7 (18) N (%)
- Weight decreased (Daily, Grade ¾): 0 N (%)
- White blood cells increased (Daily, Grade ¾): 0 N (%)
- ALT increase (Weekly, Grade ½): 3 (25) N (%)
- AST increase (Weekly, Grade ½): 1 (8) N (%)
- Abdominal discomfort (Weekly, Grade ½): 0 N (%)
- Abdominal distention (Weekly, Grade ½): 3 (25) N (%)
- Abdominal pain (Weekly, Grade ½): 2 (17) N (%)
- Albumin decreased (Weekly, Grade ½): 0 N (%)
- Alkaline phosphatase increase (Weekly, Grade ½): 2 (17) N (%)
- Anorexia or decreased appetite (Weekly, Grade ½): 7 (58) N (%)
- Any AE (Weekly, Grade ½): 10 (83) N (%)
- Back pain (Weekly, Grade ½): 1 (8) N (%)
- Constipation (Weekly, Grade ½): 4 (33) N (%)
- Cough (Weekly, Grade ½): 0 N (%)
- Creatinine increased (Weekly, Grade ½): 2 (17) N (%)
- Creatinine phosphokinase increase (Weekly, Grade ½): 0 N (%)
- Dehydration (Weekly, Grade ½): 2 (17) N (%)
- Diarrhea (Weekly, Grade ½): 0 N (%)
- Dizziness (Weekly, Grade ½): 2 (17) N (%)
- Dry mouth (Weekly, Grade ½): 1 (8) N (%)
- Dysgeusia (Weekly, Grade ½): 2 (17) N (%)
- Dyspnea (Weekly, Grade ½): 1 (8) N (%)
- Fatigue/Asthenia (Weekly, Grade ½): 8 (67) N (%)
- Flatulence (Weekly, Grade ½): 1 (8) N (%)
- Headache (Weekly, Grade ½): 1 (8) N (%)
- Hepatic encephalopathy (Weekly, Grade ½): 0 N (%)
- Hyperbilirubinaemia (Weekly, Grade ½): 2 (17) N (%)
- Hyperkalemia (Weekly, Grade ½): 0 N (%)
- Hypocalcemia (Weekly, Grade ½): 2 (17) N (%)
- Hypokalemia (Weekly, Grade ½): 2 (17) N (%)
- Hyponatremia (Weekly, Grade ½): 0 N (%)
- Infection (Weekly, Grade ½): 0 N (%)
- Insomnia (Weekly, Grade ½): 3 (25) N (%)
- Mental status changes (Weekly, Grade ½): 0 N (%)
- Nausea (Weekly, Grade ½): 2 (17) N (%)
- Pain (Weekly, Grade ½): 0 N (%)
- Pancreatitis (Weekly, Grade ½): 0 N (%)
- Peripheral edema (Weekly, Grade ½): 3 (25) N (%)
- Pleural Effusion (Weekly, Grade ½): 0 N (%)
- Pneumatosis intestinalis (Weekly, Grade ½): 0 N (%)
- Pneumonia (Weekly, Grade ½): 0 N (%)
- Proteinurea (Weekly, Grade ½): 2 (17) N (%)
- Pyrexia (Weekly, Grade ½): 0 N (%)
- Renal Failure (Weekly, Grade ½): 1 (8) N (%)
- Sinusitis (Weekly, Grade ½): 0 N (%)
- Small intestinal obstruction (ileus) (Weekly, Grade ½): 0 N (%)
- Troponin I or T increased (Weekly, Grade ½): 1 (8) N (%)
- Urinary Tract Infection (Weekly, Grade ½): 2 (17) N (%)
- Vomiting (Weekly, Grade ½): 0 N (%)
- Weight decreased (Weekly, Grade ½): 2 (17) N (%)
- White blood cells increased (Weekly, Grade ½): 0 N (%)
- ALT increase (Weekly, Grade ¾): 1 (8) N (%)
- AST increase (Weekly, Grade ¾): 4 (33) N (%)
- Abdominal discomfort (Weekly, Grade ¾): 0 N (%)
- Abdominal distention (Weekly, Grade ¾): 0 N (%)
- Abdominal pain (Weekly, Grade ¾): 0 N (%)
- Albumin decreased (Weekly, Grade ¾): 1 (8) N (%)
- Alkaline phosphatase increase (Weekly, Grade ¾): 1 (8) N (%)
- Anorexia or decreased appetite (Weekly, Grade ¾): 0 N (%)
- Any AE (Weekly, Grade ¾): 10 (48) N (%)
- Back pain (Weekly, Grade ¾): 0 N (%)
- Constipation (Weekly, Grade ¾): 0 N (%)
- Cough (Weekly, Grade ¾): 0 N (%)
- Creatinine increased (Weekly, Grade ¾): 1 (8) N (%)
- Creatinine phosphokinase increase (Weekly, Grade ¾): 1 (8) N (%)
- Dehydration (Weekly, Grade ¾): 2 (17) N (%)
- Diarrhea (Weekly, Grade ¾): 0 N (%)
- Dizziness (Weekly, Grade ¾): 0 N (%)
- Dry mouth (Weekly, Grade ¾): 0 N (%)
- Dysgeusia (Weekly, Grade ¾): 0 N (%)
- Dyspnea (Weekly, Grade ¾): 1 (8) N (%)
- Fatigue/Asthenia (Weekly, Grade ¾): 1 (8) N (%)
- Flatulence (Weekly, Grade ¾): 0 N (%)
- Headache (Weekly, Grade ¾): 0 N (%)
- Hepatic encephalopathy (Weekly, Grade ¾): 1 (8) N (%)
- Hyperbilirubinaemia (Weekly, Grade ¾): 2 (17) N (%)
- Hyperkalemia (Weekly, Grade ¾): 0 N (%)
- Hypocalcemia (Weekly, Grade ¾): 0 N (%)
- Hypokalemia (Weekly, Grade ¾): 1 (8) N (%)
- Hyponatremia (Weekly, Grade ¾): 0 N (%)
- Infection (Weekly, Grade ¾): 1 (8) N (%)
- Insomnia (Weekly, Grade ¾): 0 N (%)
- Mental status changes (Weekly, Grade ¾): 1 (8) N (%)
- Nausea (Weekly, Grade ¾): 0 N (%)
- Pain (Weekly, Grade ¾): 0 N (%)
- Pancreatitis (Weekly, Grade ¾): 0 N (%)
- Peripheral edema (Weekly, Grade ¾): 0 N (%)
- Pleural Effusion (Weekly, Grade ¾): 1 (8) N (%)
- Pneumatosis intestinalis (Weekly, Grade ¾): 1 (8) N (%)
- Pneumonia (Weekly, Grade ¾): 0 N (%)
- Proteinurea (Weekly, Grade ¾): 0 N (%)
- Pyrexia (Weekly, Grade ¾): 1 (8) N (%)
- Renal Failure (Weekly, Grade ¾): 0 N (%)
- Sinusitis (Weekly, Grade ¾): 0 N (%)
- Small intestinal obstruction (ileus) (Weekly, Grade ¾): 2 (8) N (%)
- Troponin I or T increased (Weekly, Grade ¾): 2 (17) N (%)
- Urinary Tract Infection (Weekly, Grade ¾): 0 N (%)
- Vomiting (Weekly, Grade ¾): 0 N (%)
- Weight decreased (Weekly, Grade ¾): 0 N (%)
- White blood cells increased (Weekly, Grade ¾): 0 N (%)
- Percentage of AEs, particularly Grade 3/4 AEs (pulsatile dosing (BID×3d and Weekly) as compared to continuous daily dosing): reduced percentage of AEs
